Test results from patent US10233221B2, “Peptide having eight amino acid sequences derived from cage and retaining anticancer activity and activity to promote anticancer drug sensitivity of anticancer drug-resistant cancer cells” (L-Base Co., Ltd., priority 2014, dated 2019).
Where no end group is shown, it is not given here. [ ]: non-standard residue; d: D form. The star is where a group is joined. FITC = O=C1OC2(c3ccc(O)cc3Oc3cc(O)ccc32)c2ccc(NC(=S)*)cc21

Assays:
[1] = test system: Celastrol-resistant liver cancer cell line (SNU387^R); assay: Western blotting of PARP and FAK cleavage; format: cell-based; details: 1 μM peptide 24 hours, then 1 μM and 10 μM Celastrol and Taxol 1 hour, vs cell lines without peptide
Method: (§1) In order to examine the effects of AQTGTGKT (SEQ ID NO: 1 synthesized from L-amino acid) or D-AQTGTGKT (SEQ ID NO: 1 synthesized from D-amino acid) peptides on the anticancer drug resistance of cancer cells, MTT assay and western blotting were conducted by a known method.
(§2) Liver cancer cell line (SNU387^R) and melanoma cell line (Malme3M^R), which show resistance to Celastrol as an anticancer drug, were transfected with 1 μM AQTGTGKT (SEQ ID NO: 1 synthesized from L-amino acid) or D-AQTGTGKT (SEQ ID NO: 1 synthesized from D-amino acid) peptide for 24 hours, respectively, and then treated with 1 μM and 10 μM Celastrol and Taxol for 1 hour.

[2] = test system: Celastrol-resistant melanoma cell line (Malme3M^R); assay: Western blotting of PARP and FAK cleavage; format: cell-based; details: 1 μM peptide 24 hours, then 1 μM and 10 μM Celastrol and Taxol 1 hour, vs cell lines without peptide
Method: as §1, §2

[3] = test system: GSK3β ser9 and Cyclin D1 in Malme3M^R; assay: Western blotting of GSK3β ser9 and Cyclin D1; format: cell-based
Method: (§3) In order to examine the intercellular migration and action mechanisms of AQTGTGKT (SEQ ID NO: 1 synthesized from L-amino acid) and D-AQTGTGKT (SEQ ID NO: 1 synthesized from D-amino acid) peptides, each of the peptides was prepared in a form of being conjugated to fluorescein isothiocyanate (FITC), and used to perform transfection, immunofluorescence, immunoprecipitation, and western blotting by known methods.
(§4) The same cell lines were transfected with AQTGTGKT (SEQ ID NO: 1 synthesized from L-amino acid) or FITC-AQTGTGKT (FITC-SEQ ID NO: 1) peptide, and then subjected to immunoprecipitation and western blotting.
(§5) In addition, the cell lines were transfected with AQTGTGKT (SEQ ID NO: 1 synthesized from L-amino acid) or D-AQTGTGKT (SEQ ID NO: 1 synthesized from D-amino acid) peptide, and then subjected to immunoprecipitation and western blotting.

[4] = test system: GSK3β ser9 and Cyclin D1 in SNU387^R; assay: Western blotting of GSK3β ser9 and Cyclin D1; format: cell-based
Method: as §3, §4, §5

[5] = molecular target: T1, CAGE and GSK3β proteins in Malme3M^R (Homo sapiens, UniProt Q86TM3); assay: Immunoprecipitation of CAGE and GSK3β; format: cell-based
T1 construct: Celastrol-resistant liver cancer cell line (SNU387^R) and melanoma cell line (Malme3M^R) having high expression of CAGE; endogenous in cells; host or cells: Malme3M^R (Celastrol-resistant melanoma cell line)
T1 sequence (Q86TM3 whole entry): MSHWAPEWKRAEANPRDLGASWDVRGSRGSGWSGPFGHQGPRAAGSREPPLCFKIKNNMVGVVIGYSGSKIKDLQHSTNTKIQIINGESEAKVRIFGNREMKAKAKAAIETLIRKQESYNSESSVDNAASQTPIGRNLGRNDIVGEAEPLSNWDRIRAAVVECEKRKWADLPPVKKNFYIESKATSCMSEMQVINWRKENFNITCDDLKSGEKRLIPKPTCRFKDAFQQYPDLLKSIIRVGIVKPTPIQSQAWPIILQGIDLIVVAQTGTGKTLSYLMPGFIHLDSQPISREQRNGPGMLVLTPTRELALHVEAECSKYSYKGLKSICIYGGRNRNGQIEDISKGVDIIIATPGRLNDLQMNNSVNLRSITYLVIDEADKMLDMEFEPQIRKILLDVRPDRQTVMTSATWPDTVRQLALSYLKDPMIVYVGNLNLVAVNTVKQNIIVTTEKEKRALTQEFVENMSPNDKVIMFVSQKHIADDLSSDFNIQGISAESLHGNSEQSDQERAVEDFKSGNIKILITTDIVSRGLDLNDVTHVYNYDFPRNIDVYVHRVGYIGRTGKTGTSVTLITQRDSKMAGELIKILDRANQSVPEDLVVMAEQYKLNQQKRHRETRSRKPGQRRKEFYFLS
Method: as §3, §5

[6] = molecular target: T2, CAGE and GSK3β proteins in SNU387^R (Homo sapiens, UniProt Q86TM3); assay: Immunoprecipitation of CAGE and GSK3β; format: cell-based
T2 construct: Celastrol-resistant liver cancer cell line (SNU387^R) and melanoma cell line (Malme3M^R) having high expression of CAGE; endogenous in cells; host or cells: SNU387^R (Celastrol-resistant liver cancer cell line)
T2 sequence (Q86TM3 whole entry): as above
Method: as §3, §5

Malme3M^R tumor = assay: Tumorigenicity of anticancer drug-resistant cell line in nude mouse; format: in vivo; details: 10 μg/mouse tail vein, 6 times every 3 days
Method: In order to examine that the AQTGTGKT (SEQ ID NO: 1 synthesized from L-amino acid) is a tumor-specific peptide, experiments were carried out by a known method using an anticancer drug-resistant cell line and an immune-deficient mouse.
Celastrol-resistant melanoma cell line (Malme3M^R) having high expression of CAGE was injected into the side of a nude mouse at 1×10^6 cells. When a tumor was grown to have a measurable tumor size, the tumor size was measured using a digital gauge at regular intervals, and the tumor size was calculated using a known formula (widest length×shortest length×0.5).
After the tumor was induced by the above method, AQTGTGKT (SEQ ID NO: 1 synthesized from L-amino acid) peptide (10 μg/mouse) was injected into the tail vein alone or in combination with Celastrol or Taxol anticancer drug in a total of 6 times every 3 days for 2 weeks, while the size of the tumor was measured.

[7] = test system: CAGE-GSK3β, GSK3β ser9, cyclin D1, MDR1 in tumor tissues; assay: Western blotting and immunoprecipitation of tumor tissues; format: in vivo, nude mouse
Method: After the above experiments, the protein expression and activation were examined. The tumor tissues were disrupted by liquid nitrogen according to a known method, reacted with a dissolution buffer on ice for 30 minutes, and centrifuged at 13,000 rpm for 15 minutes, and then the supernatant solution was collected as a protein sample. Thereafter, this protein sample was subjected to western blotting and immunoprecipitation to examine the protein expression and activation and the interconnection of proteins.

[8] = test system: Malme3M^R tumor metastasis; assay: Lung metastasis of anticancer drug-resistant cell line in nude mouse; format: in vivo; details: 10 μg/mouse tail vein, 6 times every 3 days from day 4
Method: In order to examine the effect of AQTGTGKT (SEQ ID NO: 1 synthesized from L-amino acid) peptide on tumor metastatic ability of an anticancer drug-resistant cell line, long metastasis was carried out using the anticancer drug-resistant cell line and an immunodeficient mouse by a known method.
Celastrol-resistant melanoma cell line (Malme3M^R) having high expression of CAGE was injected into the tail vein of a nude mouse at 1×10^6 cells, and then the metastasis of a tumor into the lung was induced for 2-3 weeks. From day 4 after tumor cell injection, AQTGTGKT (SEQ ID NO: 1 synthesized from L-amino acid) peptide (10 μg/mouse) was injected into the tail vein in a total of 6 times every 3 days, and the lung tissue was excised and the number of tumor nodules was measured by a known method.

[9] = test system: CAGE-GSK3β, GSK3β ser9, Cyclin D1 in lung tissues; assay: Immunoprecipitation and western blotting of lung tissues; format: in vivo, nude mouse
Description: After the protein was collected from the lung tissues by a conventional method, the protein expression and activation patterns were examined through immunoprecipitation and western blotting.

[10] = test system: Celastrol-resistant melanoma cell line (Malme3MR); assay: Wound-healing migration assay; format: cell-based; details: 24-48 hours
Method: (§6) In order to examine the effects of AQTGTGKT (SEQ ID NO: 1 synthesized from L-amino acid) and D-AQTGTGKT (SEQ ID NO: 1 synthesized from D-amino acid) peptides on the migration, invasiveness, and angiogenesis inducing ability of anticancer drug-resistant cell line, the invasion assay, wound-healing migration assay, and intravital microscopy were carried out by conventional methods using Celastrol-resistant melanoma cell line (Malme3M^R).
(§7) Celastrol-resistant melanoma cell line (Malme3MR) or Taxol-resistant melanoma cell line (Malme3M^R-Taxol) was cultured in 24-well culture dishes, and wounded using a 1 ml tip by a conventional method, and then the migrating cells were counted for 24-48 hours.

[11] = test system: Taxol-resistant melanoma cell line (Malme3M^R-Taxol); assay: Wound-healing migration assay; format: cell-based; details: 24-48 hours
Method: as §6, §7

[12] = test system: angiogenesis inducing ability of Malme3M^R; assay: Angiogenesis, intravital microscopy; format: in vivo; details: conditioned media of treated Malme3M^R mixed with Matrigel, injected into BALB/C mice
Method: as §6
After Celastrol-resistant melanoma cell line (Malme3M^R) was treated with AQTGTGKT (SEQ ID NO: 1 synthesized from L-amino acid) or D-AQTGTGKT (SEQ ID NO: 1 synthesized from D-amino acid) peptide, the obtained conditioned media were mixed with Matrigel and then injected into BALB/C mice, and then the mice were injected with FITC-dextran to examine the effect on angiogenesis using intravital microscopy.

Malme3M^R = assay: Intracellular migration, fluorescent microscope; format: cell-based; details: 24 hours after transfection
Method: as §3
(§8) Celastrol-resistant liver cancer cell line (SNU387^R) and melanoma cell line (Malme3M^R) having high expression of CAGE were transfected with FITC-AQTGTGKT (FITC-SEQ ID NO: 1) peptide, and after 24 hours, the cell lines were examined under a fluorescent microscope.

SNU387^R = assay: Intracellular migration, fluorescent microscope; format: cell-based; details: 24 hours after transfection
Method: as §3, §8

Malme3M^R tumor tissues = assay: Tumor-specific migration (in vivo homing); design: species or system immunodeficient mice; details: 12 hours after tail vein injection; in vivo imaging of extracted tissues
Method: In order to examine that the AQTGTGKT (SEQ ID NO: 1 synthesized from L-amino acid) peptide is a tumor-specific peptide, experiments were carried out by a known method using FITC-AQTGTGKT (FITC-SEQ ID NO: 1) and anticancer drug-resistant cell lines and immunodeficient mice.
Celastrol-resistant melanoma cell line (Malme3M^R) having high expression of CAGE was injected into immunodeficient mice by a known method to induce tumors, and then 12 hours after FITC-AQTGTGKT (FITC-SEQ ID NO: 1) was injected into the tail vein, normal tissues (brain, heart, spleen, Liver, lung, etc.) and tumor tissues were extracted and examined using a small in vivo imaging system.

In the case of AQTGTGKT (listed as Homo sapiens), the “cleavage of PARP and FAK proteins” value [1] was “significantly observed”, the “cleavage of PARP and FAK proteins” value [2] was “significantly observed” and the “dephosphorylation of GSK3β ser9” value [3] was “inhibited”. The “expression of Cyclin D1” value [3] was “inhibited”, the “dephosphorylation of GSK3β ser9” value [4] was “inhibited” and the “expression of Cyclin D1” value [4] was “inhibited”. The “interconnection of CAGE and GSK3β proteins” value (from here on “interconnection”) [5] was “inhibited”, the “interconnection” value [6] was “inhibited” and the “tumorigenicity (tumor size)” value (Malme3M^R tumor; alone) was “reduced”. For the same substance, the “anticancer drug resistance (tumor size)” value (Malme3M^R tumor; in combination with Celastrol or Taxol) was “reduced”, the “GSK3β ser9 dephosphorylation” value [7] was “reductions” and the “cyclin D1 expression” value [7] was “reductions”. The “expression of MDR1” value [7] was “inhibited”, the “interconnection” value [7] was “inhibited” and the “tumor metastasis (number of lung tumor nodules)” value [8] was “reduced”. The “dephosphorylation of GSK3β ser9” value [9] was “inhibited”, the “expression of Cyclin D1” value [9] was “inhibited” and the “interconnection” value [9] was “inhibited”. For the same substance, the cell migration [10] was “inhibited”, the cell migration [11] was “inhibited” and the angiogenesis inducing ability [12] was “remarkably reduced”.
In the case of “D-AQTGTGKT ([dA][dQ][dT]G[dT]G[dK][dT]; listed as Homo sapiens)”, the “cleavage of PARP and FAK proteins” value [1] was “significantly observed”, the “cleavage of PARP and FAK proteins” value [2] was “significantly observed” and the “dephosphorylation of GSK3β ser9” value [3] was “inhibited”. For the same substance, the “expression of Cyclin D1” value [3] was “inhibited”, the “dephosphorylation of GSK3β ser9” value [4] was “inhibited” and the “expression of Cyclin D1” value [4] was “inhibited”. The “interconnection” value [5] was “inhibited”, the “interconnection” value [6] was “inhibited” and the cell migration [10] was “inhibited”. The cell migration [11] was “inhibited” and the angiogenesis inducing ability [12] was “remarkably reduced”.
In the case of “FITC-AQTGTGKT ({FITC}-AQTGTGKT; listed as Homo sapiens) [AQTGTGKT peptide conjugated to fluorescein isothiocyanate (FITC)]”, the “migration of peptide into the cells” value (Malme3M^R) was “migrated into the cells”, the “migration of peptide into the cells” value (SNU387^R) was “migrated into the cells” and the “dephosphorylation of GSK3β ser9” value [3] was “inhibited”. The “expression of Cyclin D1” value [3] was “inhibited”, the “dephosphorylation of GSK3β ser9” value [4] was “inhibited” and the “expression of Cyclin D1” value [4] was “inhibited”. For the same substance, the “migration to tumor tissues vs normal tissues” value (Malme3M^R tumor tissues) was “migrated specifically to tumor tissues”.
